Converted amounts (≈) assume the structure as drawn. “Also recorded” adds a separate entry of the source.
Legend:
pests = experiment: Pesticidal effectiveness, overall; settings: in vivo
Source text: The pesticidal activity of the compounds according to this invention against green rice leafhoppers (Nephotettix cincticeps Uhler), rice stem borers (Chilo suppressalis Walker), tobacco cutworms (Prodenia litura […]) and houseflies (Musca domestica), as examples of the pests against which the same compounds are considered effective, the acute toxicity data on the same compounds as determined in rat by the oral route and the median tolerance limit (TLm) data on the same compounds as determined in killifish (Orizias latipes) and guppies (Lebistes reticulatus) are shown in Table 1 alongside the corresponding values for various control compounds. The pesticidal effects were determined by the procedures set forth in Test Examples 1 through 4, while the acute toxicity to rat was determined by the procedure set forth in Test Example 9 and the toxicity to fish was determined by the procedures set forth in Test Examples 6 and 7, all those Examples appearing hereinafter.

[1] = system: tobacco cutworms (Prodenia litura Fabricius); experiment: Mortality test with tobacco cutworms by topical application method; assay type: in vivo; settings: 24 h, read-out: Pesticidal effect, tobacco cutworm
Protocol: Mortality test with tobacco cutworms (Prodenia litura Fabricius) by topical application method
Using a microsyringe, 0.5 μl of the above solution was dripped onto the thoracic adbominal region of each of 3-instar tobacco cutworm (Prodenia litura Fabricius) larvae. […] The test larvae were used in groups of 20 individuals each.

[2] = Fish toxicity test with killifish; assay type: in vivo, Orizias latipes; settings: water, killifish, 25±1° C., read-out: TLm (48 hrs.)
Protocol: Fish toxicity test with killifish (Orizias latipes)
An acetone solution of one of the test compounds as mentioned in Table 8 was prepared by adding said test compound to 15 ml of acetone. To 10 liters of water was added a predetermined amount of the above acetone solution and the mixture was stirred thoroughly to prepare an aqueous solution containing the test compound in a predetermined concentration. This was used as a test water. After the each test water was moderately aerated, ten killifishes (Orizias latipes) with a body weight of about 0.25 g and a body length of about 2.5 cm were released into said each test water which was maintained at 25±1° C. After 48 hours, the test fish was examined for death. The TLm (median tolerance limit, ppm) was determined.

[3] = system: houseflies (Musca domestica); experiment: Mortality test with houseflies by topical application method; settings: 24 h
[4] = system: brown planthoppers (Nilaparvata lugens Stal); experiment: Utility Example-1: LC50 on adult brown planthoppers on dipped rice plants; assay type: in vivo; settings: 25° C.; for Pesticidal activity LC50: 24 hours, 1440 min
Protocol: A 1% emulsifiable concentrate of each test compound as prepared by the procedure described in Formulation Example 2 was diluted with water to prepare a test solution of predetermined concentration.
Rice plants, 4 weeks after sowing (cultivated in a pot 6 cm in diameter, 7 seedlings) were dipped in the above solution and after allowing them to dry in the air, the pot was covered with a wire-mesh cage. Then, 30 adult brown planthoppers (Nilaparvata lugens Stal) were released into the cage and the pot was kept in a constant-temperature chamber at 25° C.

[5] = system: guppies (Lebistes reticulatus); experiment: Fish toxicity test with guppies; assay type: in vivo; settings: Table 1; 48 hrs.
Protocol: (§1) Fish toxicity test with guppies (Lebistes reticulatus)
(§2) To 5 liters of water were added 250 mg of Sorpol SM-200 (trademark, Toho Chemical Co., Ltd.) as a surfactant and 2.5 ml of an acetone solution containing one of the test compounds in a predetermined concentration. The mixture was stirred thoroughly to prepare a test water. Ten female guppies (Lebistes reticulatus) of from 3 to 4 months of age were released into the test water which was maintained at 20° C. and the TLm (median tolerance limit, ppm) was determined.

[6] = Fish toxicity test with guppies; assay type: in vivo, Lebistes reticulatus; settings: guppy, water, guppies, 20° C., read-out: TLm (48 hrs.)
Protocol: as §1, §2

[7] = Acute toxicity test in rat by the oral route; assay type: in vivo; settings: in vivo, male rat, in olive oil, after 7 days
Source text: Acute toxicity test in rat by the oral route

carp and water flea = experiment: Fish toxicity ranking according to Japanese regulations; parameters: species or system Cyprinus carpio L; Daphnia pulex; settings: from TLm for carp and water flea
Protocol: The above ranking with symbols A, B and C were determined according to Japanese regulations relative to application of agricultural chemicals, and these symbols are defined as follows: […]
A: TLm (48 hrs.) value >10 ppm for carp and TLm (3 hrs.) value >0.5 ppm for water flea, wherein toxicity to fishes is not observed by usual application.
B: TLm (48 hrs.) value 10-0.5 ppm for carp; or TLm (48 hrs.) value >10 ppm for carp and TLm (3 hrs.) value <0.5 ppm for water flea, wherein appreciable toxicity to fishes is not observed by usual application but may be observed when applied to wide area at one time.
C: TLm (48 hrs.) value <0.5 ppm for carp, wherein toxicity to fishes is so strongly observed by usual application that both the application method and application area are strictly restricted.

[8] = Fish toxicity safety factor (TLm divided by maximum concentration in cover water); parameters: species or system carp; settings: in vivo, TLm / maximum concentration in cover water at LC50 application (100 l per 10 ares, 5 cm depth)
Protocol: (§3) To further confirm the low toxicity to fish and high pesticidal activity of Compounds (1) and (2) according to this invention as evidenced by the fish toxicity tests with carps and the above tests, fish toxicity safety factors were calculated from the fish toxicity and pesticidal test data. These fish toxicity safety factors are indicators of safety to fish inhabiting a paddy field to which Compounds (1) and (2) may be actually applied for pest control purposes.
(§4) It is first assumed that such a pesticidal solution would normally be applied at the rate of 100 l per 10 ares of paddy field. It is also assumed that a solution (100 l) corresponding to the LC50 of the compounds would be applied to 10 ares of a paddy field carrying a cover water with a depth of 5 cm above ground surface and that all the solution would then find its way into the cover water. The expected maximum concentration of the compound in the cover water is then calculated. The fish toxicity safety factor of a pesticidal compound is defined as the value obtained by dividing the TLm (ppm) of the particular compound by the maximum concentration of the compound in cover water. The meaning of the value of the fish toxicity safety factor being one (1) is that the maximum concentration of the particular compound in cover water corresponds to the TLm of said compound. It is understood that when the pesticidal compound having a fish toxicity safety factor value of less than one (1) is applied to a paddy field, it has a risk of destroying the fish inhabiting there, and that the higher the safety factor value, the higher is the safety of the compound to fish.
(§5) This fish toxicity safety factor will now be explained in further detailed by taking the trans-isomer of Compound (2) of this invention as an example.
(§6) On the other hand, the toxicity to fish of this compound is TLm >10 ppm. Therefore, by dividing the TLm (i.e. >10 ppm) by the above cover water maximum concentration (i.e. 0.36 ppm), we obtain a fish toxicity safety factor of >28. Thus, the concentration of the trans-isomerof Compound (2) which kills 50% of pests corresponds to less than 1/28 of the concentration of the same isomer which kills 50% of fish. In other words, this means that the trans-isomer of Compound (2) is extremely safe to fish.

[9] = Fish toxicity test with carp; assay type: in vivo, Cyprinus carpio L; settings: carp, water, 48 hrs., 21±1° C.; read-out: TLm, Carp (48 hrs.)
Protocol: (§7) Fish toxicity test with carp (Cyprinus carpio L)
(§8) An acetone solution of one of the test compounds as mentioned in Table 10 and Tween-20 (the same surfactant as mentioned hereinbefore) was prepared. To 50 liters of water (30 cm deep) in a glass tank was added the above acetone solution. The mixture was stirred thoroughly to prepare an aqueous solution containing the test compound in a predetermined concentration. This was used as a test water. Five carps (Cyprinus carpio L) with a body weight of about 6 g and a body length of about 6 cm were released into each test water which was maintained at 21±1° C. After 48 hours, the test fish was examined for death. The TLm (median tolerance limit, ppm) was determined. The test water was moderately aerated.

[10] = system: rice stem borers (Chilo suppressalis Walker); experiment: Mortality test with rice stem borers by topical application method; assay type: in vivo; settings: 24 h
Protocol: Mortality test with rice stem borers (Chilo suppressalis Walker) by topical application method
Using a microsyringe, 0.5 μl of the above solution was applied to the thoracic abdominal region of each final-instar larva of rice stem borer (Chilo suppressalis Walker). […] The test larvae were used in groups of 20 individuals each.

[11] = system: green rice leafhoppers (Nephotettix cincticeps Uhler); experiment: Mortality test with green rice leafhoppers by topical application method
Protocol: Mortality test with green rice leafhoppers (Nephotettix cincticeps Uhler) by topical application method
Then, the insects were kept at 25° C. with access to rice plant seedlings. The insects were used in groups of 15 individuals each.

[12] = system: water-fleas (Daphnia pulex); experiment: Toxicity test with water-fleas; assay type: in vivo; settings: 25±1° C.
Protocol: Toxicity test with water-fleas (Daphnia pulex)
An acetone solution of one of the test compounds as mentioned in Table 10 and Tween-20 (the same surfactant as mentioned hereinbefore) was prepared. To 100 ml of water in a high-walled dish (9 cm in diameter, 7 cm deep) was added the above acetone solution. The mixture was stirred thoroughly to prepare an aqueous solution containing the test compound in a predetermined concentration. This was used as a test water. Twenty water-fleas (Daphnia pulex) were released into each test water which was maintained at 25±1° C. After 6 hours, the water-fleas were examined for deaths. The TLm (median tolerance limit, ppm) was determined.

fish = experiment: Fish toxicity safety factor (TLm divided by maximum concentration in cover water); parameters: species or system carp; settings: TLm / maximum concentration in cover water at LC50 application (100 l per 10 ares, 5 cm depth)
Protocol: as §3, §4, §5, §6

carp (Cyprinus carpio L) = experiment: Fish toxicity test with carp; assay type: in vivo; settings: 48 hrs., 21±1° C.; 2880 min
Protocol: as §7, §8

[13] = Nephotettix cincticeps, in Oryza sativa, 24 h

Compound: CC1(C)C(C=C(Cl)Cl)C1C(=O)OCc1cccc(Oc2ccc(Cl)cc2)c1 (centres unmarked) [Compound (1), 3-(4-chlorophenoxy)benzyl 2,2-dimethyl-3-(2,2-dichlorovinyl)cyclopropanecarboxylate]
- pesticidal effectiveness in words (pests): excellent pesticidal activity against both the sensitive and resistant strains of pests; also recorded: at least equivalent or superior in pesticidal effectiveness to control compounds (A), (B), (C), (D), (E), (F), (G) and (H)

Compound: C#CC(OC(=O)C1C(C=C(Cl)Cl)C1(C)C)c1cccc(Oc2ccc(Cl)cc2)c1 (stereo not drawn) [Compound (2), 3-(4-chlorophenoxy)-α-ethynylbenzyl 2,2-dimethyl-3-(2,2-dichlorovinyl)cyclopropanecarboxylate]
- pesticidal effectiveness in words (pests): excellent pesticidal activity against both the sensitive and resistant strains of pests; also recorded: at least equivalent or superior in pesticidal effectiveness to control compounds (A), (B), (C), (D), (E), (F), (G) and (H)

Compound: CC1(C)C(C=C(Cl)Cl)C1C(=O)OC(C#N)c1cccc(Oc2ccccc2)c1 (centres unmarked) [Compound (C), Cypermethrin]
- mortality at 0.0001 mg [1]: 100%
- LC50 at 48 h [2]: 0.026 µg/mL (≈ 0.0625 µM)
- mortality at 0.5 µg/female [3]: 100%
- mortality at 1 µg/female [3]: 100%
- mortality at 0.001 mg ([3]; read-out: Pesticidal effect, housefly): 100%
- LC50 ([4]; Nilaparvata lugens, 24 h, read-out: Pesticidal activity LC50): 210 µg/mL (≈ 504 µM)
- Toxicity to fish TLm, guppy [5]: < 0.5 ppm
- LC50 at 48 h [6]: < 0.5 µg/mL
- LD50 at 168 h [7]: 310 mg/kg
- Ranking (carp and water flea): C (TLm (48 hrs.) value <0.5 ppm for carp, wherein toxicity to fishes is so strongly observed by usual application that both the application method and application area are strictly restricted.)
- selectivity ratio [8]: 0.01
- LC50 at 48 h [9]: 0.0045 µg/mL (≈ 0.0108 µM)
- mortality at 1 µg/larva [10]: 95%
- mortality at 10 µg/larva [10]: 100%
- mortality at 0.001 mg ([10]; read-out: Pesticidal effect, rice stem borer): 95%
- mortality at 0.01 µg/female [11, 13]: 100%
- mortality at 0.1 µg/female [11, 13]: 100%
- mortality at 1 µg/female [11, 13]: 100%
- mortality at 10 ng ([11]; Nephotettix cincticeps, in Oryza sativa, 24 h, read-out: Pesticidal effect, green rice leafhopper): 100%

Compound: C#CC(OC(=O)C1C(C=C(Cl)Cl)C1(C)C)c1cccc(Oc2ccc(Cl)cc2)c1 (stereo not drawn) [Compound (2) cis-/trans- = 10:90]
- Pesticidal activity LC50 [4]: 180 ppm
- Ranking (carp and water flea): B (TLm (48 hrs.) value 10-0.5 ppm for carp; or TLm (48 hrs.) value >10 ppm for carp and TLm (3 hrs.) value <0.5 ppm for water flea, wherein appreciable toxicity to fishes is not observed by usual application but may be observed when applied to wide area at one time.)
- TLm, Water-flea (6 hrs.) [12]: > 40 ppm
- Fish toxicity safety factor (fish): 20
- TLm, Carp (48 hrs.) (carp (Cyprinus carpio L)): 7.2 ppm

Compound: C#CC(OC(=O)C1C(C=C(Cl)Cl)C1(C)C)c1cccc(Oc2ccc(Cl)cc2)c1 (stereo not drawn) [Compound (2) cis-/trans- = 30:70]
- Pesticidal activity LC50 [4]: 180 ppm
- Ranking (carp and water flea): B (TLm (48 hrs.) value 10-0.5 ppm for carp; or TLm (48 hrs.) value >10 ppm for carp and TLm (3 hrs.) value <0.5 ppm for water flea, wherein appreciable toxicity to fishes is not observed by usual application but may be observed when applied to wide area at one time.)
- TLm, Water-flea (6 hrs.) [12]: > 40 ppm
- Fish toxicity safety factor (fish): 13.6
- TLm, Carp (48 hrs.) (carp (Cyprinus carpio L)): 4.9 ppm
- LD50 (median lethal dose) ([11]; green rice leafhoppers, 1440 min): 0.40 µg/g

From patent publication US4389412A, “Substituted cyclopropanecarboxylic acid esters and pesticidal compositions containing the same as active ingredient” (priority 1979, dated 1983)
